Data as given in paper PMC5429603, “Discovery and characterization of verinurad, a potent and specific inhibitor of URAT1 for the treatment of hyperuricemia and gout” (Scientific Reports, 2017).

Tests used:
Format in all cases: cell-based
[1] = molecular target: T1, rat URAT1 r-N35S (Rattus norvegicus, UniProt Q3ZAV1, N35S); test: URAT1 activity assay, r-N35S
T1 construct: expressed in transfected cells; host or cells: HEK-293T
Text: (§1) Human URAT1 (GenBank BC053348.1, Homo sapiens SLC22A12), rat URAT1 (NCBI NM_001034943.1, Rattus norvegicus Slc22a12) and human OAT4 (NCBI NM_018484.2, Homo sapiens SLC22A11) genes were purchased from Origene Technologies, Inc. and subcloned into pCMV6/neo using NotI. Where indicated, controls transfections used pCMV6/neo. Mutants were produced by site-directed mutagenesis using the QuikChange Lightning Multi Site-Directed Mutagenesis Kit (Agilent Technologies). […] Mutagenic primer sequences are provided in ref. [15] and mutagenic primer sequences for previously unreported mutants shown in Supplementary Table 1. All constructs used in this study were untagged. Human OAT1 was purchased from Fisher Scientific (catalog # MHS1010–7508183 in pSPORT6, NCBI NM_153276.2, Homo sapiens SLC22A6).
(§2) HEK-293T cells were maintained in DMEM/high glucose/L-glutamine/HEPES supplemented with 1 mM sodium pyruvate (Life Technologies) and 10% FBS (PAA Laboratories) at 37 °C in 5% CO2. […]
(§3) URAT1 and OAT4 activity assays were performed in assay buffer consisting of 25 mM MES pH 5.5 (from a 1 M MES solution [Sigma] adjusted to pH 5.5 with sodium hydroxide), 125 mM sodium gluconate, 4.8 mM potassium gluconate, 1.2 mM monobasic potassium phosphate, 1.2 mM magnesium sulfate, 1.3 mM calcium gluconate and 5.6 mM glucose. […] Each treatment was measured in triplicate.

[2] = molecular target: T2, rat URAT1 r-V25M (Rattus norvegicus, UniProt Q3ZAV1, V25M); test: URAT1 activity assay, r-V25M
T2 construct: expressed in transfected cells; host or cells: HEK-293T
T2 sequence (Q3ZAV1 whole entry V25M): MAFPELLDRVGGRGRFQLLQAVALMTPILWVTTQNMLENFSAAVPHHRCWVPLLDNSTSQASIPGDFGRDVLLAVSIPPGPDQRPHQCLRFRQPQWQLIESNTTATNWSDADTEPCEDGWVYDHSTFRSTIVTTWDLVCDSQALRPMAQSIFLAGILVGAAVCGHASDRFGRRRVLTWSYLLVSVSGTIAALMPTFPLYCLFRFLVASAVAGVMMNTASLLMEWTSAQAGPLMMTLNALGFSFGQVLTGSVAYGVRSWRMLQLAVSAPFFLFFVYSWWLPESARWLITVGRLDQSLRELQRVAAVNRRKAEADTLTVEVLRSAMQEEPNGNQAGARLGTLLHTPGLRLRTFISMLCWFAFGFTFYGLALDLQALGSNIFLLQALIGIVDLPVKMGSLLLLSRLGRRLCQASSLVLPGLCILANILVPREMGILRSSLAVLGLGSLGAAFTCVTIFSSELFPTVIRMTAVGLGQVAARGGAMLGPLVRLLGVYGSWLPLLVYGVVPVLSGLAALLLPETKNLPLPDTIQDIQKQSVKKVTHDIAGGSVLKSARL
Text: as §1, §2, §3

[3] = molecular target: T3, human URAT1 h-V26T (Homo sapiens, UniProt Q96S37, V26T); test: URAT1 activity assay, h-V26T; conditions: TM1 point mutant, read-out: Verinurad affinity (IC50)
T3 construct: expressed in transfected cells; host or cells: HEK-293T
T3 sequence (Q96S37 whole entry V26T): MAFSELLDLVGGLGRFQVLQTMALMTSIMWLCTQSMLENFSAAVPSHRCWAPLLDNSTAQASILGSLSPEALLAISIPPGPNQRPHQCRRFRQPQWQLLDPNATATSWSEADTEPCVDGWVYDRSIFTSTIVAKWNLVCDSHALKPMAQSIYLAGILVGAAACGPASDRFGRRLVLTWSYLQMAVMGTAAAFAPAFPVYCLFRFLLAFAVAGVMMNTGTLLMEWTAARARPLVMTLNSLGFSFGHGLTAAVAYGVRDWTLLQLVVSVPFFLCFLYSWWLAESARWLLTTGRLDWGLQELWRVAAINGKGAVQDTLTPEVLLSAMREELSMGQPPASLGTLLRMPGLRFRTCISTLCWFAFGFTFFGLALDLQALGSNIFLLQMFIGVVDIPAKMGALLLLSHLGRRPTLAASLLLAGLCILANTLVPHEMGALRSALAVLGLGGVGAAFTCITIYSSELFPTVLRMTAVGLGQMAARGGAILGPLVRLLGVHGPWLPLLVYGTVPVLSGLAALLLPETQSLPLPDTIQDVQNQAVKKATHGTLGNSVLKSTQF
Text: as §1, §2, §3

[4] = molecular target: T4, human URAT1 h-F241Y (Homo sapiens, UniProt Q96S37, F241Y); test: URAT1 activity assay, h-F241Y
T4 construct: expressed in transfected cells; host or cells: HEK-293T
T4 sequence (Q96S37 1-553 F241Y): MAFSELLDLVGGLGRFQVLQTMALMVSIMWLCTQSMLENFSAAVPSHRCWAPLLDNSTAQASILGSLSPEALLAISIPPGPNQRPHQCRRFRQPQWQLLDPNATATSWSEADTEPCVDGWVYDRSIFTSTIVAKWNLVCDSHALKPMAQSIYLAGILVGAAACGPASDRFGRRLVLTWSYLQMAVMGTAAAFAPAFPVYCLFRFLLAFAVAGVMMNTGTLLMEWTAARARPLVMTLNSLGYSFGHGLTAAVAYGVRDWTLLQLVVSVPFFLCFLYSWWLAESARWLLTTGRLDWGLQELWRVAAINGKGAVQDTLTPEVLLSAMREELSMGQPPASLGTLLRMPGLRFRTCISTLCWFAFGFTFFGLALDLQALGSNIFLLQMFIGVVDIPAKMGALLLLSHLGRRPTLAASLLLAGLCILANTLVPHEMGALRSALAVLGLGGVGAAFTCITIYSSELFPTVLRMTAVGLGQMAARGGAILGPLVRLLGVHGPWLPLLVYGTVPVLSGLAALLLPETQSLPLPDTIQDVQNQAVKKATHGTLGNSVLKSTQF
Text: as §1
HEK-293T cells were maintained in DMEM/high glucose/L-glutamine/HEPES supplemented with 1 mM sodium pyruvate (Life Technologies) and 10% FBS (PAA Laboratories) at 37 °C in 5% CO2. To express URAT1, OAT4 or OAT1, plasmids were reverse transfected into HEK-293T cells. DNA (10 µg) was mixed with 30 µl of DreamFect Gold (Boca Scientific) in 2 ml OptiMem (Life Technologies). After 20 minutes, 18 ml of media containing 2 × 10^7 cells in suspension was added and mixed, and 200 µl per well were plated onto white clear-bottomed poly-D-lysine coated 96-well plates (BD Biosciences). The cells were assayed the following day.
URAT1 and OAT4 activity assays were performed in assay buffer consisting of 25 mM MES pH 5.5 (from a 1 M MES solution [Sigma] adjusted to pH 5.5 with sodium hydroxide), 125 mM sodium gluconate, 4.8 mM potassium gluconate, 1.2 mM monobasic potassium phosphate, 1.2 mM magnesium sulfate, 1.3 mM calcium gluconate and 5.6 mM glucose. URAT1 inhibitors were serially diluted into assay buffer and added to the cells for 5 minutes prior to addition of substrate. URAT1-expressing cells were incubated with 100 µM ^14C-uric acid for 10 minutes and OAT4-expressing cells were incubated with 20 µM carboxyfluorescein (Life Technologies, Inc.) for 5 minutes. Cells were then washed three times in 25 mM MES pH 5.5/125 mM sodium gluconate, and solubilized in Ultima Gold (Perkin Elmer) prior to liquid scintillation counting. Each treatment was measured in triplicate.

T1 sequence (Q3ZAV1 whole entry N35S): as the sequence (Q3ZAV1 whole entry V25M) above, with M25V, N35S counted along it

fold higher affinity relative to rat URAT1 [1]: 4 fold
IC50 ([1]; TM1 point mutant, read-out: Verinurad affinity (IC50)): 10 ± 1.5 µM
fold increase in affinity ([2]; r-V25M vs rat URAT1): 2.3 fold
IC50 ([2]; r-V25M, TM1 point mutant, read-out: Verinurad affinity (IC50)): 18 ± 3.2 µM
IC50 [3]: 0.014 ± 0.0015 µM
fold reduced affinity compared to human URAT1 ([4]; h-F241Y): 5 fold
IC50 ([4]; h-F241Y binding site point mutant): 0.12 µM
SMILES: CC(C)(Sc1ccncc1-c1ccc(C#N)c2ccccc12)C(=O)O [Verinurad, 2-((3-(4-cyanonaphthalen-1-yl)pyrindin-4-yl)thio)-2-methylpropanoic acid]
